# From patent EP4741392A1, “1H-PYRAZOLO[4,3-C]PYRIDINE COMPOUND, AND COMPOSITION THEREOF AND USE THEREOF” (Shenzhen TargetRx Co., Ltd., priority 2023, dated 2025)
# Read-outs that look alike come from different tables or passages of the source.
# Tests used:
# OCI-LY10 cells = assay: Viability assay of OCI-LY10 cells (CTG); assay type: cell-based; conditions: cell viability, read-out: OCl-Ly10
# Method: (§1) The in vitro antiproliferative activity of the compounds of the present disclosure against TMD8 cells and OCI-LY10 cells was assayed using CTG (Cell Titer-Glo) luminescent cell viability assay. The specific assay methods were as follows. • a) TMD8 cells were cultured at 37 °C and 5% CO2 in complete medium [RPMI 1640 (supplier Gibco, product number 22400-089) + 10% FBS (supplier Gibco, product number 10091-148) + 1% P/S (supplier Hyclone, product number SV30010)]; OCI-LY10 cells were cultured at 37 °C and 5% CO2 in medium [IMDM (supplier Gibco, product number 31980-030) + 20% FBS (supplier Gibco, product number 10091-148) + 1% P/S (supplier Hyclone, product number SV30010) + 0.05 mM 2-Mercaptoethanol (supplier Sigma, product number M6250)]. • b) Cells in the logarithmic growth phase were harvested, and the total cell count and viable cell count were determined using a Vi-cell cell counter (supplier: BECKMAN COULTER, product number 2785198). • c) Cell density was adjusted using complete culture medium. Then, the cells were inoculated at 1500 cells per well in a 384-well cell culture plate (supplier Greiner, product number 781090). • d) The cells in the 384-well plate were cultured at 37 °C and 5% CO2 overnight. • e) A 10-fold drug solution was prepared, and then the serially diluted compound was transferred to the corresponding assay wells of the 384-well cell plate so that the final assay concentration was 1000 nM, with 9 concentrations, 3-fold dilutions, and triplicates for each drug concentration. • f) The cells in the 384-well plate with the drug added were cultured at 37 °C and 5% CO2 for another 120 hours. • g) The cells were removed from the incubator, and allowed to equilibrate at room temperature for 30 minutes. The cell state and compound solubility were observed under a microscope. • h) An equal volume of CellTiterGlo solution (supplier Promega, product number G7573) was added to each well, and the plate was incubated at room temperature for 30 minutes. • i) Then, the luminescent signal value was detected on an EnVision instrument (supplier PerkinElmer, product number 2441715).
# (§2) The data were analyzed using XL-fit software (supplier: ID Business Solutions Ltd., software version: XL fit 5.5.0.5). Nonlinear regression was performed using X=Log(X), and the X values were transformed using a four-parameter Logistic model 205, from which the IC50 values were calculated. Inhibition rate % = (Max−samplevalue)/Max*100.(Max:DMSOnegativecontrol) [formula]
# TMD8 cells = assay: Viability assay of TMD8 cells (CTG); assay type: cell-based; conditions: cell viability, 120 hours
# Method: as §1, §2
Structure (SMILES),"IC50 (OCI-LY10 cells; Homo sapiens, OCI-Ly10, 120 h) [µM]",IC50 (OCI-LY10 cells; 120 hours) [µM],IC50 (TMD8 cells; Homo sapiens) [µM],IC50 (TMD8 cells) [µM]
"COc1ccc(F)cc1C(=O)NCc1ccc(-c2nc(C(C)C(F)(F)F)cc3[nH]nc(N)c23)cc1 (single isomer, unassigned) [Example 2, N-(4-(3-amino-6-(1,1,1-trifluoropropan-2-yl)-1H-pyrazolo[4,3-c]pyridin-4-yl)benzyl)-5-fluoro-2-methoxybenzamide]",0.01 to 0.05,–,0.005 to 0.01,–
"COc1ccc(F)cc1C(=O)NCc1ccc(-c2nc(C(C)C(F)(F)F)cc3[nH]nc(N)c23)cc1 (single isomer, unassigned) [Example 3, N-(4-(3-amino-6-(1,1,1-trifluoropropan-2-yl)-1H-pyrazolo[4,3-c]pyridin-4-yl)benzyl)-5-fluoro-2-methoxybenzamide]",–,0.01 to 0.05,–,0.005 to 0.01
"COc1ccc(F)cc1C(=O)NCc1ccc(-c2nc(C(C)C(F)(F)F)c(-c3cc(C)[nH]n3)c3[nH]nc(N)c23)cc1 (stereo not shown) [Example 9, N-(4-(3-amino-7-(5-methyl-1H-pyrazol-3-yl)-6-(1,1,1-trifluoropropan-2-yl)-1H-pyrazolo[4,3-c]pyridin-4-yl)benzyl)-5-fluoro-2-methoxybenzamide]",0.005 to 0.01,–,≤ 0.005,–
"COc1ccc(F)cc1C(=O)NCc1ccc(-c2ncc(-c3ccccn3)c3[nH]nc(N)c23)cc1 [Example 15, N-(4-(3-amino-7-(pyridin-2-yl)-1H-pyrazolo[4,3-c]pyridin-4-yl)benzyl)-5-fluoro-2-methoxybenzamide]",0.005 to 0.01,–,≤ 0.005,–
"COc1ccc(F)cc1C(=O)NCc1ccc(-c2ncc(-c3ncccn3)c3[nH]nc(N)c23)cc1 [Example 17, N-(4-(3-amino-7-(pyrimidin-2-yl)-1H-pyrazolo[4,3-c]pyridin-4-yl)benzyl)-5-fluoro-2-methoxybenzamide]",0.01 to 0.05,–,0.005 to 0.01,–
"COc1ccc(F)cc1C(=O)NCc1ccc(-c2ncc(-c3cnccn3)c3[nH]nc(N)c23)cc1 [Example 18, N-(4-(3-amino-7-(pyrazin-2-yl)-1H-pyrazolo[4,3-c]pyridin-4-yl)benzyl)-5-fluoro-2-methoxybenzamide]",0.01 to 0.05,–,0.005 to 0.01,–
COc1ccc(F)cc1C(=O)NCc1ccc(-c2ncc(-c3ccncn3)c3[nH]nc(N)c23)cc1 [Example 19],0.01 to 0.05,–,0.005 to 0.01,–

# The next lines start with results.
"IC50 (OCI-LY10 cells; Homo sapiens, OCI-Ly10, 120 h) [µM]",IC50 (OCI-LY10 cells; 120 hours) [µM],Structure (SMILES),IC50 (TMD8 cells; Homo sapiens) [µM],IC50 (TMD8 cells) [µM]
0.005 to 0.01,–,"COc1ccc(F)cc1C(=O)NCc1ccc(-c2nc(C(C)C(F)(F)F)c(-c3ccn(C)n3)c3[nH]nc(N)c23)cc1 (single isomer, unassigned) [Example 6-1, N-(4-(3-amino-7-(1-methyl-1H-pyrazol-3-yl)-6-(1,1,1-trifluoropropan-2-yl)-1H-pyrazolo[4,3-c]pyridin-4-yl)benzyl)-5-fluoro-2-methoxybenzamide]",≤ 0.005,–
–,≤ 0.005,"COc1ccc(F)cc1C(=O)NCc1ccc(-c2nc(C(C)C(F)(F)F)c(-c3ccn(C)n3)c3[nH]nc(N)c23)cc1 (single isomer, unassigned) [Example 6-2, N-(4-(3-amino-7-(1-methyl-1H-pyrazol-3-yl)-6-(1,1,1-trifluoropropan-2-yl)-1H-pyrazolo[4,3-c]pyridin-4-yl)benzyl)-5-fluoro-2-methoxybenzamide]",–,≤ 0.005
≤ 0.005,–,"COc1ccc(F)cc1C(=O)NCc1ccc(-c2nc(C(C)C(F)(F)F)c(-c3ncccn3)c3[nH]nc(N)c23)cc1 (single isomer, unassigned) [Example 7-1, N-(4-(3-amino-7-(pyrimidin-2-yl)-6-(1,1,1-trifluoropropan-2-yl)-1H-pyrazolo[4,3-c]pyridin-4-yl)benzyl)-5-fluoro-2-methoxybenzamide]",≤ 0.005,–
–,≤ 0.005,"COc1ccc(F)cc1C(=O)NCc1ccc(-c2nc(C(C)C(F)(F)F)c(-c3ncccn3)c3[nH]nc(N)c23)cc1 (single isomer, unassigned) [Example 7-2, N-(4-(3-amino-7-(pyrimidin-2-yl)-6-(1,1,1-trifluoropropan-2-yl)-1H-pyrazolo[4,3-c]pyridin-4-yl)benzyl)-5-fluoro-2-methoxybenzamide]",–,≤ 0.005
